Test results: patent US20230158025A1 (UNIVERSITY OF UTAH RESEARCH FOUNDATION, priority 2020, published 2023)
Where two headings read alike, the source gives them in different places.

Assays:
[1] = aqueous kinetic solubility
[2] = PAMPA permeability
[3] = target: T1, hGALK1m (Homo sapiens, UniProt P51570, E253A/K252A); assay: in vitro hGALK1 activity assay of the structure-based optimisation (Example 12, Tables 17-20); format: biochemical; conditions: for fold improvement of potency (IC50) versus parent compound: increase in potency relative to the unsubstituted parent
T1 construct: made in house; host or cells: E. coli HMS174
T1 sequence (P51570 whole entry K252A/E253A): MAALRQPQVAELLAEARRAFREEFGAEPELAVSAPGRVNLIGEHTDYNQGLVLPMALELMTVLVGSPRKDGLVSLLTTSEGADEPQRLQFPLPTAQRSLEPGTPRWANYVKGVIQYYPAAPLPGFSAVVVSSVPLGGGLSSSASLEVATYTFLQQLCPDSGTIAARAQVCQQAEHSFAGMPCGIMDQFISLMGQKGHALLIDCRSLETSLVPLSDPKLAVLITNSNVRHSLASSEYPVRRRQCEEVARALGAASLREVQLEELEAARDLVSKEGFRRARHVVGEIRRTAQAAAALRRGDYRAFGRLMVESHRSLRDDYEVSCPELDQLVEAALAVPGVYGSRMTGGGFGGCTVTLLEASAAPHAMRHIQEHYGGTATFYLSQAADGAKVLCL
Description: In vitro hGALK1 activity assays were performed as previously described. Liu et al., Bioorg. Med. Chem. Lett. 25(3): 721-727 (2015), which is incorporated by reference herein for the specific teachings thereof. The biochemical assay was performed by coupling the activity of recombinant human or mouse GALK1 to the Kinase-Glo Plus luminescent ATP detection kit, using ATP depletion as a measure of GALK1 turnover. Specifically, three μL/well of ATP substrate solution (35 μM ATP) in assay buffer (20 mM HEPES pH 8.0, 5 mM MgCl2, 60 mM NaCl, 1 mM DTT, 0.01% BSA final concentration) was dispensed into 1536-well assay plates (Greiner, white solid-bottom medium-binding plates). Aliquots of compound (23 nL solubilized in DMSO) were transferred to the assay plates using a Kalypsys 1536-well pintool such that 11 concentrations with 1/3 dilutions ranging from 57.4 μM-0.97 nM are tested. One μL/well of GALK-galactose solution (5 nM GALK1, 100 μM galactose) in assay buffer was then added, yielding a final reaction volume of 4 μL/well. Following a 1-hour room temperature incubation, 4 μL of Kinase-Glo Plus detection reagent was added to provide an ATP-dependent luminescent readout (final assay volume: 8 μL/well). Luminescence was detected using a ViewLux plate reader (PerkinElmer) after a 10-minute incubation, using a 1 second exposure time and 2× binning.
The in vitro hGALK1 activity assay was performed as previously described. Liu et al., Bioorg. Med. Chem. Lett. 25(3): 721-727 (2015). For the measurement of cellular Gal-1P reduction, compounds at different concentrations were added to cultured patient fibroblast at 80% confluency. After incubating the compounds for 16 hours, 10 mM galactose was added to the culture. After another 4 hours, cells were washed with cold PBS buffer 3× and harvested for gal-1P measurement, according to the previously published method. Liu et al., Bioorg. Med. Chem. Lett. 25(3): 721-727 (2015).

[4] = target: recombinant mouse GALK1 (Mus musculus, UniProt Q9R0N0); assay: mGALK1 biochemical activity assay (Kinase-Glo Plus, ATP depletion)
Sequence of recombinant mouse GALK1 (Q9R0N0 whole entry): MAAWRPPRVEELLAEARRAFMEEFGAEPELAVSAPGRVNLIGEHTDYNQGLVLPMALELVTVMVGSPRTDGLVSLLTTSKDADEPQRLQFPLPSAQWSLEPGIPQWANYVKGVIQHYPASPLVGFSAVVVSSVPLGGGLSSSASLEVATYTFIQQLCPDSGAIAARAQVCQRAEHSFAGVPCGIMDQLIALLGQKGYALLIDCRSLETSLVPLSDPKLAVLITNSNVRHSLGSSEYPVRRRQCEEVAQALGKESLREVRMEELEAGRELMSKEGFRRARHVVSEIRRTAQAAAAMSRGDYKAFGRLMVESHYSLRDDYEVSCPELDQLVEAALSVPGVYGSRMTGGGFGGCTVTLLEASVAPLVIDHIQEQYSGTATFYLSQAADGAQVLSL
Procedure, shortened: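 Recombinant GALK1 (5 nM) with 100 μM galactose; GALK1 turnover read as ATP depletion by Kinase-Glo Plus luminescence. Reaction ran 1 h at room temperature before detection reagent was added.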

[5] = target: recombinant human GALK1 (Homo sapiens, UniProt P51570); assay: hGALK1 biochemical activity assay (Kinase-Glo Plus, ATP depletion)
Sequence of recombinant human GALK1 (P51570 whole entry): as the sequence (P51570 whole entry K252A/E253A) above, with A252K, A253E counted along it
Procedure, shortened: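 Recombinant human or mouse GALK1 (5 nM, with 100 μM galactose, in the added enzyme solution) was run with ATP (35 μM in the substrate solution) in HEPES pH 8.0 buffer. Compounds were tested at 11 1/3-step concentrations from 57.4 μM to 0.97 nM. After 1 h at room temperature, remaining ATP was read by Kinase-Glo Plus luminescence.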

[6] = rat microsomal stability (RLM); conditions: for half-life: rat, rat liver microsomes
[7] = PAMPA, ADME P: PAMPA permeability (class), Tables 17-19, class probably colour-coded, colour lost
[8] = Tables 18-19, read-out: Max Response (%)
[9] = Tables 18-19 and text of Example 12
[10] = Tables 2-15, 35 μM ATP, 100 μM galactose, 1 h, bracketed figure after some values is undefined and not reported, read-out: mGALK IC50
[11] = recombinant mouse GALK1, Kinase-Glo Plus ATP depletion, read-out: mGALK
[12] = Tables 2-15, 35 μM ATP, 100 μM galactose, 1 h, bracketed figure after some values (e.g. −1.2) is undefined and not reported, read-out: hGALK IC50
[13] = recombinant human GALK1, Kinase-Glo Plus ATP depletion, read-out: hGALK
[14] = 1 h, Table 17, read-out: Efficacy
[15] = Tables 18-20 and text of Example 12

SMILES | Sol. [1] [µg/mL] | Perm. (1 × 10^−6 cm/sec) [2] | Papp [2, 7] [×10⁻⁶ cm/s] | change of potency versus parent compound (in words) [3] | Emax [3, 8] [%] | IC50 [3, 9] [µM] | IC50 [4, 10] [µM] | IC50 [4, 11] [µM] | IC50 [5, 12] [µM] | IC50 [5, 13] [µM] | Metab. Stabil. (m) ([6]; microsomal half-life) | half-life [6] [min] | other results
CC1=C(C(=O)Nc2cc(C(=O)O)ccn2)C(c2ccccc2Cl)N=C(Nc2nc3cccc(C)c3o2)N1 (stereo not shown) [Compound 15, 2-(4-(2-chlorophenyl)-6-methyl-2-((7-methylbenzo[d]oxazol-2-yl)amino)-1,4-dihydropyrimidine-5-carboxamido)isonicotinic acid] | >76 |  | < 10 |  | 100 |  | 6.85 | 6.85 | 0.97 |  | >30 | < 10 | IC50 [3, 15]: 0.365 µM; fold improvement of potency (IC50) versus parent compound [3]: 2.6 fold
COc1ccc2oc(NC3=NC(c4ccccc4Cl)C(C(=O)Nc4cc(C(=O)O)ccn4)=C(C)N3)nc2c1 (stereo not shown) [Compound 5, 2-(4-(2-chlorophenyl)-2-((5-methoxybenzo[d]oxazol-2-yl)amino)-6-methyl-1,4-dihydropyrimidine-5-carboxamido)isonicotinic acid] | >79 | <1 1 × 10^−6 cm/sec | < 10 |  | 100 | 2 | 12.2 | 12.2 |  | 6.85 | >30 | < 10 | 
CC1=C(C(=O)Nc2cc(C(=O)O)ccn2)C(c2ccccc2Cl)N=C(Nc2nc3ccc(Cl)cc3o2)N1 (stereo not shown) [Compound 14, 2-(2-((6-chlorobenzo[d]oxazol-2-yl)amino)-4-(2-chlorophenyl)-6-methyl-1,4-dihydropyrimidine-5-carboxamido)isonicotinic acid] | 6.3 |  | < 10 |  | 100 | 2.25 | 6.11 | 6.11 |  | 1.93 | >30 | < 10 | fold decrease of potency versus parent compound ([3]; loss of potency relative to the unsubstituted parent): more than 2 fold
CC1=C(C(=O)Nc2cc(C(=O)O)ccn2)C(c2ccccc2Cl)N=C(Nc2nc3c(Cl)cccc3o2)N1 (stereo not shown) [Compound 11, 2-(2-((4-chlorobenzo[d]oxazol-2-yl)amino)-4-(2-chlorophenyl)-6-methyl-1,4-dihydropyrimidine-5-carboxamido)isonicotinic acid] | <1 | <1.3 1 × 10^−6 cm/sec | < 10 |  | 85 | 5.8 | 13.7 | 13.7 | 5.44 |  | >30 | < 10 | 
CC1=C(C(=O)Nc2cc(C(=O)O)ccn2)C(c2ccccc2Cl)N=C(Nc2nc3cccc(Cl)c3o2)N1 (stereo not shown) [Compound 17, 2-(2-((7-chlorobenzo[d]oxazol-2-yl)amino)-4-(2-chlorophenyl)-6-methyl-1,4-dihydropyrimidine-5-carboxamido)isonicotinic acid] | 57.5 | <1 1 × 10^−6 cm/sec | < 10 | did not change the potency | 100 | 1 | 9.68 | 9.68 | 1.93 |  | >30 | < 10 | 

Now from value to molecule, other results behind:

Sol. [1] [µg/mL] | Perm. (1 × 10^−6 cm/sec) [2] | Papp [2, 7] [×10⁻⁶ cm/s] | change of potency versus parent compound (in words) [3] | Emax [3, 8] [%] | IC50 [3, 9] [µM] | IC50 [4, 10] [µM] | IC50 [4, 11] [µM] | IC50 [5, 12] [µM] | IC50 [5, 13] [µM] | Metab. Stabil. (m) ([6]; microsomal half-life) | half-life [6] [min] | SMILES | other results
>78 | <1 1 × 10^−6 cm/sec | < 10 | significantly impaired the potency | 90 | 3.8 | 21.7 | 21.7 | 7.69 | 7.69 | >30 | < 10 | CC1=C(C(=O)Nc2cc(C(=O)O)ccn2)C(c2cccc(C(N)=O)c2)N=C(Nc2nc3ccc(F)cc3o2)N1 (stereo not shown) [Compound 76, 2-(4-(3-carbamoylphenyl)-2-((6-fluorobenzo[d]oxazol-2-yl)amino)-6-methyl-1,4-dihydropyrimidine-5-carboxamido)isonicotinic acid] | 
 |  | < 10 |  |  |  | 10.9 |  | 5.44 |  |  | < 10 | CC1=C(C(=O)Nc2nnc(C)s2)C(c2ccccc2Cl)N=C(Nc2nc3ccccc3o2)N1 (stereo not shown) [Compound 173, 2-(benzo[d]oxazol-2-ylamino)-4-(2-chlorophenyl)-6-methyl-N-(5-methyl-1,3,4-thiadiazol-2-yl)-1,4-dihydropyrimidine-5-carboxamide] | Sol. ([1]; aqueous kinetic solubility): <1 µg/mL; Perm. (1 × 10^−6 cm/sec) ([2]; PAMPA): 23.75 1 × 10^−6 cm/sec; Emax [3, 14]: 95%; IC50 ([3]; Table 17, amide group optimization, no unit in table): 3.9 µM; Metab. Stabil. (m) ([6]; microsomal stability half-life): >30 m
 |  | < 10 | significantly impaired the potency |  |  | 13.7 | 13.7 | 8.63 | 8.63 |  | < 10 | CC1=C(C(=O)NCc2nc3ccccc3n2C)C(c2ccccc2Cl)N=C(Nc2nc3ccccc3o2)N1 (stereo not shown) [Compound 234, 2-(benzo[d]oxazol-2-ylamino)-4-(2-chlorophenyl)-6-methyl-N-((1-methyl-1H-benzo[d]imidazol-2-yl)methyl)-1,4-dihydropyrimidine-5-carboxamide] | Sol. ([1]; aqueous kinetic solubility): <1 µg/mL; Emax [3, 14]: 48%; Metab. Stabil. (m) ([6]; microsomal stability half-life): 4.516 m
3.5 | <1.3 1 × 10^−6 cm/sec | < 10 |  | 100 | 5.5 | 17.2 | 17.2 |  | 9.68 | >30 | < 10 | CC1=C(C(=O)Nc2cc(C(=O)O)ccn2)C(c2ccccc2Cl)N=C(Nc2nc3c(C)cccc3o2)N1 (stereo not shown) [Compound 18, 2-(4-(2-chlorophenyl)-6-methyl-2-((4-methylbenzo[d]oxazol-2-yl)amino)-1,4-dihydropyrimidine-5-carboxamido)isonicotinic acid] | 
8.3 |  | < 10 | little effect | 100 |  | 3.06 | 3.06 | 0.43 | 0.43 | >30 | < 10 | COc1ccc(C2N=C(Nc3nc4ccc(F)cc4o3)NC(C)=C2C(=O)Nc2cc(C(=O)O)ccn2)c(Cl)c1 (racemic) [Compound 46, 2-(4-(2-chloro-4-methoxyphenyl)-2-((6-fluorobenzo[d]oxazol-2-yl)amino)-6-methyl-1,4-dihydropyrimidine-5-carboxamido)isonicotinic acid] | IC50 [3, 15]: 0.3 µM
2.8 |  | < 10 |  | 100 |  | 3.06 | 3.06 | 0.39 | 0.39 | >30 | < 10 | CC1=C(C(=O)Nc2cc(C(=O)O)ccn2)C(c2ccc(C)cc2Cl)N=C(Nc2nc3ccc(F)cc3o2)N1 (racemic) [Compound 50, 2-(4-(2-chloro-4-methylphenyl)-2-((6-fluorobenzo[d]oxazol-2-yl)amino)-6-methyl-1,4-dihydropyrimidine-5-carboxamido)isonicotinic acid] | Papp ([2]; PAMPA, Perm. (1 × 10^−6 cm/sec)): < 1.5 ×10⁻⁶ cm/s; IC50 [3, 15]: 0.136 µM; fold improvement of potency (IC50) versus parent compound [3]: 2 fold
